Data published in paper PMC7931429 (ACS Omega, 2021).

What was measured:
[1] = system: CHIKV-NanoLuc; assay: Antiviral activity against CHIKV-NanoLuc in RPE cells; format: cell-based; conditions: Chikungunya virus, 48 h, read-out: IC50 in RPE cells
[2] = target: T1, CHIKV nsP2 (Chikungunya virus, UniProt Q8JUX6); assay: Cell-free protease inhibition assay with recombinant CHIKV nsP2; format: biochemical; conditions: inhibitor 1 mM, nsP2 1.4 μM, substrate 6 μM, 30 °C, 1.5 h
T1 sequence (Q8JUX6 536-1333 limits assumed): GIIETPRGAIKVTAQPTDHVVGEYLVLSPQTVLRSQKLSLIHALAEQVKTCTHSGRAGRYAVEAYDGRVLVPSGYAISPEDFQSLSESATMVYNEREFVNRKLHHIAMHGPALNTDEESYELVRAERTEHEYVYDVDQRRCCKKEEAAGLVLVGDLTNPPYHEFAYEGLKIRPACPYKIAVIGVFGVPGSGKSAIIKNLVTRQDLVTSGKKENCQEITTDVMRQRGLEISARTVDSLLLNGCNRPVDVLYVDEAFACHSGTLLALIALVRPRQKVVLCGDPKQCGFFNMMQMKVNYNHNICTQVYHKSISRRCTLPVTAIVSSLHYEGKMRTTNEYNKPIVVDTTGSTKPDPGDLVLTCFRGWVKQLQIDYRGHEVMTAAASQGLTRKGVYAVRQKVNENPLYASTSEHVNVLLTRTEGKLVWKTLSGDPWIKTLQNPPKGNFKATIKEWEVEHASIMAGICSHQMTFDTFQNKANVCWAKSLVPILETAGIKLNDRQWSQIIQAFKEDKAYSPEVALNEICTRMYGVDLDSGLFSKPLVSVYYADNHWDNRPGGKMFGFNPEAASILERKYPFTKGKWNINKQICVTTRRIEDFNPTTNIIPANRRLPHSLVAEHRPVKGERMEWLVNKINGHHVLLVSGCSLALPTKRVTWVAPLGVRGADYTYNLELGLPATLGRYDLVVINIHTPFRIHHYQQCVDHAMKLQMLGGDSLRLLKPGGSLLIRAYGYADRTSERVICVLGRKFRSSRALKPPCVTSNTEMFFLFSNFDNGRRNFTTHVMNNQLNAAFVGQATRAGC

[3] = system: CHIKV-NanoLuc; format: cell-based, Chikungunya virus; conditions: BHK-21 cells, MOI 10, 6 h post infection, concentration 10 times higher than IC50

O=C(Nc1ncc([N+](=O)[O-])s1)c1ccccc1O [Compound 10, 2-hydroxy-N-(5-nitro-1,3-thiazol-2-yl)benzamide]
IC50 [1]: 7.3 µM
Effect on protease activity of nsP2 (amount of cleavage product) [2]: strongest inhibitory effect
Virus replication (ns-protein and capsid protein expression) by western blot [3]: completely inhibited

O=C(Nc1ncc([N+](=O)[O-])s1)c1cccc(Cl)c1 [Compound 10b, 3-chloro-N-(5-nitro-1,3-thiazol-2-yl)benzamide]
Effect on protease activity of nsP2 (amount of cleavage product) [2]: smaller inhibitory effect than compound 10

O=C(Nc1ncc([N+](=O)[O-])s1)c1cc(Cl)ccc1Cl [Compound 10c, 2,5-dichloro-N-(5-nitro-1,3-thiazol-2-yl)benzamide]
Effect on protease activity of nsP2 (amount of cleavage product) [2]: smaller inhibitory effect than compound 10

(5Z)-3-ethyl-5-(naphthalen-1-ylmethylidene)-2-sulfanylidene-1,3-oxazolidin-4-one [Compound 1]
Effect on protease activity of nsP2 (amount of cleavage product) [2]: no effect
